Assay results taken from patent publication US20230080054A1 (ILDONG PHARMACEUTICAL CO., LTD., priority 2021, published 2023).

Legend:
human ANO6 [1] = target: T1, human ANO6 (Homo sapiens, UniProt Q4KMQ2); experiment: LACT C2 assay (phosphatidylserine scramblase function assay); type: cell-based; settings: FRT cells expressing human ANO6, 10 μM ionomycin; for inhibition at 0.1 µM: test compound 100 nM, read-out: Inhibition Level 100 nM; for inhibition at 1 µM: test compound 1 μM, read-out: Inhibition Level 1 μM
T1 construct: expressed in transfected cells
T1 sequence (Q4KMQ2 1-931 isoform Q4KMQ2-2): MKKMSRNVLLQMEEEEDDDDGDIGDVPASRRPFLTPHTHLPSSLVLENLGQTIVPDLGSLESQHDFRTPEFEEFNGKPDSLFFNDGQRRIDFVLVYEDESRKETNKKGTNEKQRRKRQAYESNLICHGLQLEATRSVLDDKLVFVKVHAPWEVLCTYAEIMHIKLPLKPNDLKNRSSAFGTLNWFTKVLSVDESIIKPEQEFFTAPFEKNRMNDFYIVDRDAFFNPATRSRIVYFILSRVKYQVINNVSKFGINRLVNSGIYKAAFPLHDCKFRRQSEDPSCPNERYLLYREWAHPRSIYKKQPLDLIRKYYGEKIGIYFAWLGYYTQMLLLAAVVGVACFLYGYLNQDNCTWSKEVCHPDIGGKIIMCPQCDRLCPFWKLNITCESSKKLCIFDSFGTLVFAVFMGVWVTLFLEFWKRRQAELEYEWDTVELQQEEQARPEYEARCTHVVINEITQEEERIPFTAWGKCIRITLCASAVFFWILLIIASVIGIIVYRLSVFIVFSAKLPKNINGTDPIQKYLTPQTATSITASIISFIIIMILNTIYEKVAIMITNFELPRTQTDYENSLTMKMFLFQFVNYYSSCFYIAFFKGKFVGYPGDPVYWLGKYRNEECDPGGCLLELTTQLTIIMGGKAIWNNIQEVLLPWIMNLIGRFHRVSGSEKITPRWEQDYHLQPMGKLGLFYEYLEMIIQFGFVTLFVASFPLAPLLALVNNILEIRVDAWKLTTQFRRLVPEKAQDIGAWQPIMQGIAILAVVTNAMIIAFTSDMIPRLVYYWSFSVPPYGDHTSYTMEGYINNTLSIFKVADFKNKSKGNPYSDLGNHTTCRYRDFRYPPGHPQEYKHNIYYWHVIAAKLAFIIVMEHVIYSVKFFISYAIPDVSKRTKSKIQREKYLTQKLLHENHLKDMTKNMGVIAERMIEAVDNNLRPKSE
Method in brief: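 Inhibition was normalised between ionomycin-only (0%) and untreated (100%) wells, with triplicates averaged. Readout was background-corrected Lact-C2-GFP (500 nM) fluorescence from imaged cells. The cells were FRT cells stably expressing human ANO6, given compound at 1% DMSO for 10 min before a 10 min 10 μM ionomycin challenge.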

human ANO6 [2] = target: T1, human ANO6; experiment: YFP quenching assay (ANO6 ion channel activity); type: cell-based; settings: 10 μM ionomycin; for inhibition at 1 µM: test compound 1 μM, read-out: Inhibition Level 1 μM; for inhibition at 30 µM: test compound 30 μM, read-out: Inhibition Level 30 μM
Method in brief: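 FRT cells stably expressing human ANO6 and YFP-H148Q/I152L/F46L, preincubated 10 min at 40° C with compounds (1% DMSO) in PBS. Quench read every 0.4 s after injecting 140 mM SCN- with 10 μM ionomycin; % inhibition from the 3.6–7.6 s fluorescence difference, normalised to no-ionomycin (100%) and ionomycin-only (0%) wells, duplicate or triplicate.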

SMILES | inhibition at 0.1 µM (human ANO6 [1]) | inhibition at 1 µM (human ANO6 [1]) | inhibition at 1 µM (human ANO6 [2]) | inhibition at 30 µM (human ANO6 [2])
O=C(NCCCc1ccccc1)c1cccc(Nc2ccc(-c3ccc(F)cc3)nn2)c1 [Compound A6] | < 30% | < 30% | ≥ 60% | ≥ 60%
Cc1ccc(CNC(=O)c2cccc(Nc3ccc(-c4cccc(F)c4)cn3)c2)o1 [Compound 125, 3-{[5-(3-fluorophenyl)pyridin-2-yl]amino}-N-[(5-methylfuran-2-yl)methyl]benzamide] | < 30% | ≥ 60% | ≥ 60% | 
O=C(NC1CCCCC1)c1cccc(Nc2ccc(-c3ccccc3)nn2)c1 [Compound A62] | < 30% | 30 to 60% | 30 to 60% | ≥ 60%
O=C(NC1CCCC1)c1cccc(Nc2ccc(-c3ccc(F)cc3)nn2)c1 [Compound A14] | < 30% | < 30% | ≥ 60% | ≥ 60%
O=C(NCc1ccc(Br)cc1)c1cccc(Nc2ccc(-c3ccc(F)cc3)nn2)c1 [Compound A26] | < 30% | < 30% | 30 to 60% | ≥ 60%
Cc1ccc(CNC(=O)c2cccc(Nc3ncc(-c4ccc(C)o4)cn3)c2)o1 [Compound 92, N-[(5-methylfuran-2-yl)methyl]-3-{[5-(5-methylfuran-2-yl)pyrimidin-2-yl]amino}benzamide] |  | < 30% | < 30% | 
O=C(NCC1CCC1)c1cccc(Nc2ccc(-c3ccccc3)nn2)c1 [Compound 30, N-(cyclobutylmethyl)-3-[(6-phenylpyridazin-3-yl)amino]benzamide] |  | 30 to 60% | ≥ 60% | ≥ 60%
CCN(CC)c1ccc(CNC(=O)c2cccc(Nc3ccc(-c4ccccc4)nn3)c2)cc1 [Compound A55] | < 30% | < 30% | ≥ 60% | ≥ 60%
Cc1ccc(CNC(=O)c2cccc(Nc3ncc(-c4cccs4)cn3)c2)o1 [Compound 110, N-[(5-methylfuran-2-yl)methyl]-3-{[5-(thiophen-2-yl)pyrimidin-2-yl]amino}benzamide] |  | 30 to 60% | 30 to 60% | 
O=C(NCCc1cccc(F)c1)c1cccc(Nc2ncc(-c3ccccc3)cn2)c1 [Compound 90, N-[2-(3-fluorophenyl)ethyl]-3-[(5-phenylpyrimidin-2-yl)amino]benzamide] |  | 30 to 60% | ≥ 60% | 
O=C(NC1CCN(Cc2ccccc2)CC1)c1cccc(Nc2ncc(-c3ccccc3)cn2)c1 [Compound 120, N-(1-benzylpiperidin-4-yl)-3-[(5-phenylpyrimidin-2-yl)amino]benzamide] | < 30% | < 30% | < 30% | 
O=C(NCc1ccc2c(c1)OCO2)c1cccc(Nc2ccc(-c3ccccc3)nn2)c1 [Compound A64] | < 30% | < 30% | 30 to 60% | ≥ 60%
O=C(NCCc1ccccc1)c1cccc(Nc2ccc(-c3ccccc3)cc2)c1 [Compound 50, 3-({[1,1′-biphenyl]-4-yl}amino)-N-(2-phenylethyl)benzamide] |  | 30 to 60% | ≥ 60% | 
O=C(NC1CCCCCC1)c1cccc(Nc2ccc(-c3ccccc3)nn2)c1 [Compound A39] | ≥ 60% | ≥ 60% | 30 to 60% | ≥ 60%
CC(C)CCNC(=O)c1cccc(Nc2ccc(-c3ccc(F)cc3)nn2)c1 [Compound A13] | < 30% | 30 to 60% | ≥ 60% | ≥ 60%
O=C(Nc1cccc(F)c1)c1cccc(Nc2ncc(-c3ccccc3)cn2)c1 [Compound 116, N-(3-fluorophenyl)-3-[(5-phenylpyrimidin-2-yl)amino]benzamide] | < 30% | ≥ 60% | ≥ 60% | 
O=C(NCCCc1ccccc1)c1cccc(Nc2cnc(-c3ccccc3)cn2)c1 [Compound 54, N-(3-phenylpropyl)-3-[(5-phenylpyrazin-2-yl)amino]benzamide] |  | < 30% | ≥ 60% | 
CCOCCCNC(=O)c1cccc(Nc2ccc(-c3ccccc3)nn2)c1 [Compound A67] | < 30% | < 30% | ≥ 60% | ≥ 60%
CCCOc1ccc(CNC(=O)c2cccc(Nc3ccc(-c4ccccc4)nn3)c2)cc1 [Compound A47] | 30 to 60% |  | ≥ 60% | ≥ 60%
CCCCCNC(=O)c1cccc(Nc2ccc(-c3ccccc3)nn2)c1 [Compound A72] |  | 30 to 60% | ≥ 60% | ≥ 60%
O=C(NCCc1ccccc1)c1cccc(Nc2cnc(-c3ccccc3)cn2)c1 [Compound 51, N-(2-phenylethyl)-3-[(5-phenylpyrazin-2-yl)amino]benzamide] | 30 to 60% | ≥ 60% | ≥ 60% | 
CC(C)CCNC(=O)c1cccc(Nc2ccc(-c3ccccc3)nn2)c1 [Compound A70] | 30 to 60% | ≥ 60% | ≥ 60% | ≥ 60%

Now from value to compound:

inhibition at 0.1 µM (human ANO6 [1]) | inhibition at 1 µM (human ANO6 [1]) | inhibition at 1 µM (human ANO6 [2]) | inhibition at 30 µM (human ANO6 [2]) | SMILES
< 30% | < 30% | 30 to 60% | ≥ 60% | O=C(NCc1ccccc1)c1cccc(Nc2ccc(-c3ccc(F)cc3)nn2)c1 [Compound A16]
< 30% | < 30% | ≥ 60% | ≥ 60% | CCC(C)NC(=O)c1cccc(Nc2ccc(-c3ccccc3)nn2)c1 (centres unmarked) [Compound A78]
< 30% | < 30% | ≥ 60% | ≥ 60% | Cc1ccc(C(C)NC(=O)c2cccc(Nc3ccc(-c4ccccc4)nn3)c2)cc1 (centres unmarked) [Compound A57]
< 30% | ≥ 60% | ≥ 60% | ≥ 60% | Cc1ccc(CNC(=O)c2cccc(Nc3ccc(-c4ccccc4)nn3)c2)s1 [Compound 40, N-[(5-methylthiophen-2-yl)methyl]-3-[(6-phenylpyridazin-3-yl)amino]benzamide]
30 to 60% | ≥ 60% | ≥ 60% |  | O=C(Nc1ccccc1)c1cccc(Nc2ccc(-c3ccccc3)nn2)c1 [Compound A89]
30 to 60% | 30 to 60% | ≥ 60% | ≥ 60% | O=C(NCCCc1ccccc1)c1cccc(Nc2ccc(-c3ccccc3)nn2)c1 [Compound A51]
< 30% | < 30% | ≥ 60% | ≥ 60% | COc1ccc(CNC(=O)c2cccc(Nc3ccc(-c4ccccc4)nn3)c2)cc1 [Compound A77]
< 30% | < 30% | ≥ 60% | ≥ 60% | CC(C)CNC(=O)c1cccc(Nc2ccc(-c3ccccc3)nn2)c1 [Compound A66]
< 30% | < 30% | ≥ 60% | ≥ 60% | CC(C)c1ccc(CNC(=O)c2cccc(Nc3ccc(-c4ccccc4)nn3)c2)cc1 [Compound A53]
< 30% | 30 to 60% | ≥ 60% | ≥ 60% | O=C(NC1CCN(Cc2ccccc2)CC1)c1cccc(Nc2ccc(-c3ccccc3)nn2)c1 [Compound A73]
< 30% | 30 to 60% | 30 to 60% | ≥ 60% | CCN(CCNC(=O)c1cccc(Nc2ccc(-c3ccccc3)nn2)c1)Cc1ccccc1 [Compound A41]
 | < 30% | ≥ 60% |  | O=C(NCc1ccoc1)c1cccc(Nc2ccc(-c3ccccc3)nn2)c1 [Compound 45, N-[(furan-3-yl)methyl]-3-[(6-phenylpyridazin-3-yl)amino]benzamide]
